Measured values from US10131669B2, “Pyrazolopyrimidine compounds” (Pfizer Inc., priority 2014, dated 2018).
Where a name gives a salt, the structure may show the parent alone.

Experiments:
Type in all cases: biochemical
Human PDE4B1 = molecular target: T1, Human PDE4B1 (Homo sapiens, UniProt Q07343, S133E/S654A/S659A/S661A); test: PDE4B1 Scintillation Proximity Assay (SPA), inhibition of enzyme activity; settings: geometric mean of 2-7 determinations unless otherwise indicated (b: ≥8 determinations; c: single determination); 1 μM cAMP, 30 min at 25° C.; read-out: Human PDE4B FL; IC50
T1 construct: His6 (N); thrombin cleavage site (N); made in house; host or cells: insect cells (baculovirus, pFastBac)
T1 sequence (Q07343 122-736 S133E/S654A/S659A/S661A): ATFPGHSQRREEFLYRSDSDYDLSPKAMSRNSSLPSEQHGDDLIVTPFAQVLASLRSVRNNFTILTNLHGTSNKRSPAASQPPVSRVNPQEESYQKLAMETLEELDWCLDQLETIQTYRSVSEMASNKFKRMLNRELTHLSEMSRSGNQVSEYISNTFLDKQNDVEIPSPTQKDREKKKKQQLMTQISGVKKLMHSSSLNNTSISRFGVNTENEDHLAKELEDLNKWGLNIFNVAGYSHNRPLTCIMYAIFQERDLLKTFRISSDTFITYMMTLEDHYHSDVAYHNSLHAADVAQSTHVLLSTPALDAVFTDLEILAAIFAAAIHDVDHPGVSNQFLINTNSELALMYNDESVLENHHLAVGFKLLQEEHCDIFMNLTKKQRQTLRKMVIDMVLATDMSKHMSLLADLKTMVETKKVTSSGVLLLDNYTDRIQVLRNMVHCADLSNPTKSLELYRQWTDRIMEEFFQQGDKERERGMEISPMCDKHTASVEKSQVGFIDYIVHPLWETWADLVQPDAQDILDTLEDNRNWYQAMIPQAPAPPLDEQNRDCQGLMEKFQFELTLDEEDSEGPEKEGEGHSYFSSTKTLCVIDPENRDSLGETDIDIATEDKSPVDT
Description: The recombinant Bacmid was isolated and used to transfect insect cells to generate a viral stock. To generate cell paste for purification, insect cells were infected with the virus stock and cells were harvested 72 hours after infection as described in Seeger, T. F. et al., Brain Research 985 (2003) 113-126. Insect cell paste was lysed and after centrifugation, the supernatant was chromatographed on Ni-NTA agarose (Qiagen) as described in Seeger, T. F. et al., Brain Research 985 (2003) 113-126. Ni-NTA agarose eluting fractions containing PDE4 were pooled, diluted with Q buffer A (20 mM Tris HCl pH 8, 5% glycerol, 1 mM TCEP) to reduce NaCl to ˜100 mM and loaded on a Source 15Q (GE Healthcare) column. After washing with Q buffer A/10% buffer B to baseline, PDE4D was eluted with a gradient from 10% to 60% of Buffer B (20 mM Tris HCl pH 8, 1 M NaCl, 5% glycerol, 1 mM TCEP). PDE4D fractions were analyzed by SDS-PAGE Coomassie blue staining, pooled based on purity, frozen and stored at −80° C.
(§1) The PDE4A3, PDE4B1, PDE4C1 and PDE4D3 assays use the Scintillation Proximity Assay (SPA) technology to measure the inhibition of human recombinant […], PDE4C1, and PDE4D3 enzyme activity by compounds in vitro. The PDE4A1, PDE4B3, PDE4C1, and PDE4D3 assays are run in parallel using identical parameters, except for the concentration of enzyme (80 pM PDE4A3, 40 pM PDE4B3, 40 pM PDE4C1 and 10 pM PDE4D). The assays are performed in a 384-well format with 50 uL assay buffer (50 mM TRIS pH7.5; 1.3 mM MgCl2; 0.01% Brij) containing enough PDE4A3, PDE4B1, PDE4C1, and PDE4D to convert ˜20% of substrate (1 μM cAMP consisting of 20 nM 3H-cAMP+[…] cold cAMP) and a range of inhibitors. Reactions are incubated for 30 min at 25° C. The addition of 20 uL of 8 mg/ml yitrium silicate SPA beads (Perkin Elmer) stops the reaction. The plates are sealed (TopSeal, Perkin Elmer) and the beads are allowed to settle for 8 hrs, after which they are read on the Trilux Microbeta overnight.

Human PDE4C1 = molecular target: T2, Human PDE4C1 (Homo sapiens, UniProt Q08493); test: PDE4C1 Scintillation Proximity Assay (SPA), inhibition of enzyme activity; settings: geometric mean of 2-7 determinations unless otherwise indicated (b: ≥8 determinations; c: single determination), 1 μM cAMP, 30 min at 25° C., read-out: Human PDE4C FL
T2 construct: His6 (N); FLAG (C); made in house; host or cells: insect cells (baculovirus, pFastBac)
T2 sequence (Q08493 2-712): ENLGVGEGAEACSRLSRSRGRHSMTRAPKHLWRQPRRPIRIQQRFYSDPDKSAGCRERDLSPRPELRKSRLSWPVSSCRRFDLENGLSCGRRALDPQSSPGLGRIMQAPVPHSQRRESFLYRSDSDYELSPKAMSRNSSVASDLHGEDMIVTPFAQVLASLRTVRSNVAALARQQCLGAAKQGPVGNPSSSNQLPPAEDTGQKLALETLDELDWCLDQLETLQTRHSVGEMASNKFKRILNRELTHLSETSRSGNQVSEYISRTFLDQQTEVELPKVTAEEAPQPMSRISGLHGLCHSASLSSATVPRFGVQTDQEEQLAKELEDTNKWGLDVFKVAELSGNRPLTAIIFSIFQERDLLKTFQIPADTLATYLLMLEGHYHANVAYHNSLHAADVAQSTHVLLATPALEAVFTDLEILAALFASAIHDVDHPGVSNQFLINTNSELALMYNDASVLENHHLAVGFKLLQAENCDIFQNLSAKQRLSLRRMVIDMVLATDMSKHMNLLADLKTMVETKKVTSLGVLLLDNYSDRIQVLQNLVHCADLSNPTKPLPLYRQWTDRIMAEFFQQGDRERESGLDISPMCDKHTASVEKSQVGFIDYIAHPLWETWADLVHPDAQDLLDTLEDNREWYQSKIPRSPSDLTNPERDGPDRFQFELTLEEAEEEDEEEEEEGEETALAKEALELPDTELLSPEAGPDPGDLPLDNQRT
Description: (§2) The recombinant Bacmid was isolated and used to transfect insect cells to generate a viral stock. To generate cell paste for purification, insect cells were infected with the virus stock and cells were harvested 72 hours after infection. Insect cell paste was lysed and after centrifugation, the supernatant was batch bound to Ni-NTA agarose (GE Healthcare) and eluted with 250 mM imidazole. This eluate was diluted with FLAG buffer (50 mM Tris HCL pH 7.5, 100 mM NaCl, 5% Glycerol, 1 mM TCEP with protease inhibitors) and batch bound to ant-FLAG M2 agarose (Sigma) overnight at 4° C. The agarose was packed into a column, washed with buffer and eluted with buffer containing elute using 250 ug/ml Flag-peptide. Fractions were analyzed using SDS-PAGE Coomassie blue staining and pooled based on purity. Pooled fractions were chromatographed on a S200 120 ml column (GE Healthcare) in 50 mM Tris HCL pH 7.5, 150 mM NaCl, 10% Glycerol, 2 mM TCEP with protease inhibitors. PDE4C1 fractions were analyzed by SDS-PAGE Coomassie blue staining, pooled based on purity, dialyzed against 50 mM Tris HCL pH 7.5, 100 mM NaCl, 20% Glycerol, 2 mM TCEP, frozen and stored at −80° C.
as §1

Human PDE4A3 = molecular target: T3, Human PDE4A3 (Homo sapiens, UniProt P27815); test: PDE4A3 Scintillation Proximity Assay (SPA), inhibition of enzyme activity; settings: geometric mean of 2-7 determinations unless otherwise indicated (b: ≥8 determinations; c: single determination), 1 μM cAMP, 30 min at 25° C., read-out: Human PDE4A FL
T3 construct: His6 (N); FLAG (C); made in house; host or cells: insect cells (baculovirus, pFastBac)
T3 sequence (P27815 2-825 isoform P27815-6): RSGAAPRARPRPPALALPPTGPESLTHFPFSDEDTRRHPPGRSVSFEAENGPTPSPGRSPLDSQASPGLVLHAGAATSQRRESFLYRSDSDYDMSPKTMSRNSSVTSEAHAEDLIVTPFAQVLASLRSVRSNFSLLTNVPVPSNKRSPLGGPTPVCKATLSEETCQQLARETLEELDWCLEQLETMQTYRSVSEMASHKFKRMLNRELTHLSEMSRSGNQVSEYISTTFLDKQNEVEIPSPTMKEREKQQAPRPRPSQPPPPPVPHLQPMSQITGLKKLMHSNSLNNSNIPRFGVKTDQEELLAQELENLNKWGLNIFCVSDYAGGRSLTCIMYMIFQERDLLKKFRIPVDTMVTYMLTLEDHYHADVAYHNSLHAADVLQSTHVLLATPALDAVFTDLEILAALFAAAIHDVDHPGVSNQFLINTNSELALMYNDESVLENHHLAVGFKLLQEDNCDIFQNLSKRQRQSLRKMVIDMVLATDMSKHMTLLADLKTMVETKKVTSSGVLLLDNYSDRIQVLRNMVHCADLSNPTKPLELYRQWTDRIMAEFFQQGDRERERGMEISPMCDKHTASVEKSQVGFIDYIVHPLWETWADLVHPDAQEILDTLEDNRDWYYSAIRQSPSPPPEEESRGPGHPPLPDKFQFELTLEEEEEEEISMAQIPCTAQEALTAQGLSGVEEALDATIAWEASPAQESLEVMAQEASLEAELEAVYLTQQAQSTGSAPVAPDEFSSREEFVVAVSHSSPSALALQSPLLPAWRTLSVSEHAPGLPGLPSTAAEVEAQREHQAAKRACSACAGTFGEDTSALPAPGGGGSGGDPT
Source text: as §2, with “Human PDE4A3 coding sequence (amino acids 2 to 825 from the sequence with accession number NP_001104779) was cloned into the baculovirus expression vector pFastBac (Invitrogen) engineered to include an N-terminal His6 affinity tag and a c-terminal FLAG affinity tag to aid in purification. The recombinant” for “The recombinant”, “protease inhibitors. PDE4A3 fractions were” for “protease inhibitors. PDE4C1 fractions were”
as §1

human PDE4D3 = molecular target: T4, human PDE4D3 (Homo sapiens, UniProt Q08499); test: PDE4D3 Scintillation Proximity Assay (SPA), inhibition of enzyme activity; settings: geometric mean of 2-7 determinations unless otherwise indicated (b: ≥8 determinations; c: single determination); 1 μM cAMP, 30 min at 25° C.; read-out: Human PDE4D FL; IC50
T4 construct: His6 (C); made in house; host or cells: insect cells (baculovirus, pFastBac)
T4 sequence (Q08499 186-808): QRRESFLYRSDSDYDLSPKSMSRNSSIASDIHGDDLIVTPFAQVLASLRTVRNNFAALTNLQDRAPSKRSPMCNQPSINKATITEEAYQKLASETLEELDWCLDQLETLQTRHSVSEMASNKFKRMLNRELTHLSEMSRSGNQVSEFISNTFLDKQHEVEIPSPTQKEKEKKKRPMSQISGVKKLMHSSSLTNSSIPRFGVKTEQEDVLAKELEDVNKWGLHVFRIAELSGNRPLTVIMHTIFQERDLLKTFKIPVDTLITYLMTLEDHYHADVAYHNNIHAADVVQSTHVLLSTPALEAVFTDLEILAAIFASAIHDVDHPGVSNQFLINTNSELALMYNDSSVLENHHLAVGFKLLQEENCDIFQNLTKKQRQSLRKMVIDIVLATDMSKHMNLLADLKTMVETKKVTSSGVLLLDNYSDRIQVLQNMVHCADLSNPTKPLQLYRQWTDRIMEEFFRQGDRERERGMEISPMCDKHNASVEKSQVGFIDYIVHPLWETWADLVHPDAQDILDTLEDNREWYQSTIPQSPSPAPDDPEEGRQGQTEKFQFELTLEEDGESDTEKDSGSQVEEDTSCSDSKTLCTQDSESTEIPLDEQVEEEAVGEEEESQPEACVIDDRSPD
Description: The recombinant Bacmid was isolated and used to transfect insect cells to generate a viral stock. To generate cell paste for purification, insect cells were infected and cells were harvested 72 hours after infection. Insect cell paste was lysed and after centrifugation, the supernatant was chromatographed on Ni-NTA agarose (Qiagen) as described in Seeger, T. F. et al., Brain Research 985 (2003) 113-126. Ni-NTA agarose eluting fractions containing PDE4 were pooled, diluted with Q Buffer A (50 mM Tris HCl pH 8, 4% glycerol, 100 mM NaCl, 1 mM TCEP, Protease inhibitors EDTA-free (Roche)) to reduce NaCl to ˜200 mM, and loaded on a Q Sepharose (GE Healthcare) column. After washing with Q buffer A to baseline, PDE4D was eluted with a gradient from 10% to 60% of Buffer B (50 mM Tris HCl pH 8, 1 M NaCl, 4% glycerol, 1 mM TCEP). PDE4D fractions were analyzed by SDS-PAGE Coomassie blue staining, pooled based on purity, frozen and stored at −80° C.
as §1

SMILES	IC50 (Human PDE4B1) [nM]	IC50 (Human PDE4C1) [nM]	IC50 (Human PDE4A3) [nM]	IC50 (human PDE4D3) [nM]
CCNC(=O)c1nn2cccnc2c1-c1ccc(Cl)cc1 [Example 52, 3-(4-chlorophenyl)-N-ethylpyrazolo[1,5-a]pyrimidine-2-carboxamide]	234	115	142	5930
O=C(NC1CC1)c1nn2cccnc2c1-c1cc(Cl)ccc1F [Example 13, 3-(5-chloro-2-fluorophenyl)-N-cyclopropylpyrazolo[1,5-a]pyrimidine-2-carboxamide]	57.9	57.9	27.2	2460
N#Cc1ccc(-c2c(C(=O)NC3CC3)nn3cccnc23)cn1 [Example 44, 3-(6-cyanopyridin-3-yl)-N-cyclopropylpyrazolo[1,5-a]pyrimidine-2-carboxamide]	358	898	192	> 11900
O=C(c1nn2cccnc2c1-c1cccc(Cl)c1)N1CCC1 [Example 48, azetidin-1-yl[3-(3-chlorophenyl)pyrazolo[1,5-a]pyrimidin-2-yl]methanone]	236	76.4	167	> 16000
Cc1cc(Cl)c(F)cc1-c1c(C(=O)NC2CCC2)nn2cccnc12 [Example 24, 3-(4-chloro-5-fluoro-2-methylphenyl)-N-cyclobutylpyrazolo[1,5-a]pyrimidine-2-carboxamide]	35.4	44	8.53	606
Cc1cc(Cl)c(F)cc1-c1c(C(=O)NC2CC2)nn2cccnc12 [Example 25, 3-(4-chloro-5-fluoro-2-methylphenyl)-N-cyclopropylpyrazolo[1,5-a]pyrimidine-2-carboxamide]	9.61	17.4	5.35	283
Cc1cc(Cl)ccc1-c1c(C(=O)N2CCC2)nn2cccnc12 [Example 21, azetidin-1-yl[3-(4-chloro-2-methylphenyl)pyrazolo[1,5-a]pyrimidin-2-yl]methanone]	44.6	56.5	16.6	4830
O=C(NC1CC1)c1nn2cccnc2c1-c1ccc(Cl)cc1 [Example 10, 3-(4-chlorophenyl)-N-cyclopropylpyrazolo[1,5-a]pyrimidine-2-carboxamide]	96.9	42.9	25.3	5840
O=C(NC12CC(C1)C2)c1nn2cccnc2c1-c1ccc(Cl)cc1 [Example 27, N-(bicyclo[1.1.1]pent-1-yl)-3-(4-chlorophenyl)pyrazolo[1,5-a]pyrimidine-2-carboxamide]	124	217	55.8	6200
O=C(NC1CC1)c1nn2cccnc2c1-c1cc(F)c(Cl)cc1F [Example 47, 3-(4-chloro-2,5-difluorophenyl)-N-cyclopropylpyrazolo[1,5-a]pyrimidine-2-carboxamide]	24.4	13.9	4.69	819
O=C(NC1CC1)c1nn2cccnc2c1-c1cccc(Cl)c1 [Example 31, 3-(3-chlorophenyl)-N-cyclopropylpyrazolo[1,5-a]pyrimidine-2-carboxamide, hydrochloride salt]	51	106	36.2	2120

The next compounds have a lower IC50 (Human PDE4B1) than those just listed; values first:

IC50 (Human PDE4B1) [nM]	IC50 (Human PDE4C1) [nM]	IC50 (Human PDE4A3) [nM]	IC50 (human PDE4D3) [nM]	SMILES
3.7	19.9	14.4	140	O=C(N[C@@H]1C[C@@H]1F)c1nn2cccnc2c1-c1ccc(Cl)c(F)c1 [Example 28, 3-(4-chloro-3-fluorophenyl)-N-[(1R,2S)-2-fluorocyclopropyl]pyrazolo[1,5-a]pyrimidine-2-carboxamide]
2.71	2.83	0.461	92.1	O=C(NC1CC1)c1nn2cc(F)cnc2c1-c1cc(F)c(Cl)c(F)c1 [Example 57, 3-(4-chloro-3,5-difluorophenyl)-N-cyclopropyl-6-fluoropyrazolo[1,5-a]pyrimidine-2-carboxamide]
7	9	2	79	O=C(c1nn2cc(F)cnc2c1-c1ccc(Cl)c(F)c1)N1CCC1 [Example 66, azetidin-1-yl[3-(4-chloro-3-fluorophenyl)-6-fluoropyrazolo[1,5-a]pyrimidin-2-yl]methanone]
3.02	5.18	0.77	43	O=C(NC1CC1)c1nn2cc(F)cnc2c1-c1cc(F)c(Cl)cc1F [Example 72, 3-(4-chloro-2,5-difluorophenyl)-N-cyclopropyl-6-fluoropyrazolo[1,5-a]pyrimidine-2-carboxamide]
5.87	18	3.29	662	O=C(NC1CC1)c1nn2cccnc2c1-c1ccc(Cl)c(F)c1 [Example 5, 3-(4-Chloro-3-fluorophenyl)-N-cyclopropylpyrazolo[1,5-a]pyrimidine-2-carboxamide]
